Reference: US20250282797A1, “CRYSTALLINE FORM OF FGFR4 INHIBITOR AND USE THEREOF” (CSPC ZHONGQI PHARMACEUTICAL TECHNOLOGY (SHIJIAZHUANG) CO., …, priority 2022, published 2025)
≈ marks a conversion by molar mass, not a printed value. Read-outs that look alike come from different tables or passages of the source. Blank lines part the entries; values can stand above or below the molecule they belong to.

Legend:
[1] = Competitive suspension experiments; assay type: physicochemical; conditions: for XRPD result (room temperature): 25° C.
Method: Test Example 1: Competitive Suspension Experiments
Equal amounts (6 mg) of the crystalline form I sample of the compound of formula B obtained in Example 1, the crystalline form II sample of the compound of formula B obtained in Example 22, and the crystalline form III sample of the compound of formula B obtained in Example 33 were mixed. The resulting mixture was separately stirred at room temperature (25° C.) and at a high temperature (50° C.) for 24 h, 2 days, and 7 days in the following solvents, and the remaining solids were subjected to the XRPD test.

[2] = Solubility test; assay type: physicochemical; conditions: 200 rpm; for FeSSIF Solubility: FeSSIF (pH about 5.00); for solubility at 24 h: 37 °C, thermodynamic from solid
Method: Test Example 2: Solubility Test
The crystalline form I sample (5 mg) obtained in Example 1 and the crystalline form II sample (5 mg) obtained in Example 22 were added to a sample bottle, and 1 mL of SGF (simulated gastric fluid), FaSSIF (fasted state simulated intestinal fluid), FeSSIF (fed state simulated intestinal fluid), and water were separately added. The resulting suspensions were shaken at 37° C. at a rotation speed of 200 rpm for 24 h and filtered. The resulting filtrates were subjected to the concentration test, and the resulting solids were subjected to XRPD characterization.

[3] = Solid stability study; assay type: physicochemical; conditions: 7 days
Method: Test Example 3: Solid Stability Study
The crystalline form I (5 mg) obtained in Example 1 and the crystalline form II (5 mg) obtained in Example 22 were weighed into sample bottles; the samples were subjected to solid-state stability studies after being placed under the conditions of 60° C. (closed) and 40° C./75% RH (open); and sampling was performed on day 7 for XRPD characterization.

[4] = Dynamic vapor sorption/desorption (DVS) analysis; assay type: physicochemical
Method: 2. Dynamic Vapor Sorption/Desorption (DVS) Analysis
Instrument: DVS Intrinsic plus (SMS, UK).
Method: a sample is placed in a tared sample basket, the weight of the sample is automatically measured, and the sample is dried at 40° C./0% RH until dm/dt is less than 0.002% and then cooled to 25° C.

[5] = Grinding stability study; assay type: physicochemical
[6] = Pharmacokinetic study in rats; assay type: in vivo, SD rats; conditions: rat
Excerpt: Test Example 6: Pharmacokinetic Study of Compound of Formula B in Rats
Assay drug: the compound of formula B obtained in Preparation Example 1.
Instrument: LC-MS/MS-13 (TQ5500, Triple quad), with the operation software of Xcalibur2.0.7 (Thermo Fisher Scientific, USA); LC-10ADvp liquid chromatography system (Shimadzu, Japan); Shimadzu LC-20AD liquid chromatography pump; Shimadzu CBM-20A system controller; Shimadzu CTO-20A column oven; and SIL-20AC autosampler (Shimadzu, Japan). Chromatographic column: Agilent Zorbax SB-CN 3.5 u 100×2.1 mm; column temperature: 40° C.; mobile phase A: 0.1% aqueous formic acid solution; mobile phase B: a 0.1% solution of formic acid in acetonitrile; flow rate: 0.60 mL/min. The gradient elution was performed as follows: from 0 to 0.5 min, the mobile phase B was increased from 1% to 90%; from 0.5 to 1.2 min, 90% of the mobile phase B was maintained; starting from 1.21 min, the mobile phase B was changed back to 1%; and elution was stopped at 1.60 min.
Animals: 6 male SD rats were supplied by Shanghai Sippe-Bk Lab Animal Co., Ltd. The body weight range was 180-220 g. After purchase, the rats were bred in the laboratory of the experimental animal center for 2 days for later use. The rats were fasted 10-14 h before administration and 4 h after administration, and given ad libitum access to water during the assay. The rats were randomly divided into two groups, with 3 rats in each group. One group was intravenously injected, and the other group was intragastrically administered.
Preparation of intragastric administration solution: the compound of formula B (4.85 mg) was precisely weighed out, and a mixed aqueous solution (9.70 mL) containing 0.5% methylcellulose and 0.4% Tween-80 was added, followed by sonication at room temperature to prepare a 0.5 mg/mL suspension. Preparation of intravenous injection solution: the compound of formula B (2.79 mg) was precisely weighed out, and DMSO (21 μL), PEG200 (2.79 mL), and normal saline (4.164 mL) were added to prepare a 0.4 mg/mL solution.
Blood was collected in the intragastric administration group about 0.25 h before administration and 0.25 h, 0.5 h, 1 h, 1.5 h, 2 h, 4 h, 6 h, 8 h, 12 h, and 24 h after administration. Blood was collected in the intravenous administration group about 0.25 h before administration and 0.083 h, 0.25 h, 0.5 h, 0.75 h, 1 h, 2 h, 4 h, 8 h, 12 h, and 24 h after administration. The blood was collected from the jugular vein or other venipuncture at 0.25 mL/time point and anticoagulated with EDTA-K2 or EDTA-K3. The collected blood was placed on the ice. After the blood samples were collected, plasma was separated by centrifugation (centrifugation conditions: 6800 g/min, 6 min, 2-8° C.). The collected plasma samples were stored in a refrigerator at −80° C. for testing prior to analysis.
The compound of the formula B was accurately weighed out and formulated into different concentrations, and quantitative analysis was performed on a mass spectrometer to establish a standard curve. The concentration of the compound of formula B in the plasma described above was then measured to obtain the concentrations of the compound of formula B at different time points. All the measured data were collected and processed by relevant software, and pharmacokinetic parameters (mainly including kinetic parameters Tmax, T1/2, Cmax, AUC0-t, etc.) were calculated by adopting a statistical moment method. […]

[7] = Dichloromethane/acetonitrile (V:V = 1:2), 0.5 mL, 24 h
[8] = Dichloromethane/acetonitrile (V:V = 1:2), 0.5 mL, 7 days
[9] = Dichloromethane/ethanol (V:V = 1:4), 0.5 mL, 24 h
[10] = Dichloromethane/ethanol (V:V = 1:4), 0.5 mL, 7 days
[11] = N,N-Dimethylformamide, 0.5 mL, 24 h
[12] = N,N-Dimethylformamide, 0.5 mL, 7 days
[13] = Water/acetone (V:V = 1:1), 1 mL, 2 days
[14] = Water/acetone (V:V = 2:8), 1 mL, 2 days
[15] = Water/acetone (V:V = 5:95), 1 mL, 2 days
[16] = male, SD, plasma, iv, intravenously injected, 2.0 mg/kg
[17] = male, SD, plasma, po, intragastrically administered, 5 mg/kg

XRPD result (room temperature) [1, 7]: form I + II
XRPD result (50° C.) [1, 7]: form I + II
XRPD result (room temperature) [1, 8]: form I
XRPD result (50° C.) [1, 8]: form I
XRPD result (room temperature) [1, 9]: form I + II
XRPD result (50° C.) [1, 9]: form I + II
XRPD result (room temperature) [1, 10]: form I
XRPD result (50° C.) [1, 10]: form I
XRPD result (room temperature) [1, 11]: form I + II
XRPD result (50° C.) [1, 11]: form I + II
XRPD result (room temperature) [1, 12]: form I
XRPD result (50° C.) [1, 12]: form I
XRPD result (room temperature) ([1]; Water, 0.5 mL, 7 days): form I + II
XRPD result (50° C.) ([1]; Water, 0.5 mL, 7 days): form I + II
XRPD result (room temperature) [1, 13]: form I + II
XRPD result (50° C.) [1, 13]: form I
XRPD result (room temperature) [1, 14]: form I + II
XRPD result (50° C.) [1, 14]: form I
XRPD result (room temperature) [1, 15]: form I + II
XRPD result (50° C.) [1, 15]: form I
SMILES: N#Cc1cnc(NC(=O)N2CCCc3cc(CN4CCN5CCC[C@H]5C4=O)c(C=O)nc32)cc1NC1CC1

FaSSIF Solubility ([2]; FaSSIF (pH about 6.50), 37° C., 24 h): 19 µg/mL
FeSSIF Solubility ([2]; 37° C., 24 h): 5.5 µg/mL
SGF Solubility ([2]; SGF (pH about 1.20), 37° C., 24 h): >5000 µg/mL
Water Solubility ([2]; 37° C., 24 h): 1.5 µg/mL
XRPD result at 40° C./75% RH (open) [3]: Unchanged
XRPD result at 60° C. (closed) [3]: Unchanged
SMILES: N#Cc1cnc(NC(=O)N2CCCc3cc(CN4CCN5CCC[C@H]5C4=O)c(C=O)nc32)cc1NC1CC1 [Crystalline form II]

hygroscopic weight gain ([4]; DVS, 0-90% RH, 25° C.): about 0.24%
hygroscopicity ([4]; DVS, 0-90% RH, 25° C.): almost non-hygroscopic
crystalline form of the sample after the DVS test ([4]; XRPD after DVS): not changed
Grinding stability result (crystalline form, XRPD) ([5]; Solid grinding, 2 min): unchanged
Grinding stability result (crystalline form, XRPD) ([5]; Solid grinding, 5 min): unchanged, but the crystallinity
Grinding stability result (crystallinity, XRPD) ([5]; Solid grinding, 5 min): became worse
Grinding stability result (crystalline form, XRPD) ([5]; Solvent grinding, Acetone): unchanged
Grinding stability result (crystalline form, XRPD) ([5]; Solvent grinding, Acetonitrile): unchanged
Grinding stability result (crystalline form, XRPD) ([5]; Solvent grinding, Dichloromethane): unchanged
Grinding stability result (crystalline form, XRPD) ([5]; Solvent grinding, Ethanol): unchanged
Grinding stability result (crystalline form, XRPD) ([5]; Solvent grinding, Methanol): unchanged
solubility at 24 h ([2]; FaSSIF (fasted state simulated intestinal fluid), pH 6.5, fassif, FaSSIF (pH about 6.50), read-out: FaSSIF Solubility): 26 µg/mL (≈ 50.5 µM)
FeSSIF Solubility ([2]; 37° C., 24 h): 14 µg/mL
solubility at 24 h ([2]; SGF (simulated gastric fluid), pH 1.2, simulated gastric fluid, SGF (pH about 1.20), read-out: SGF Solubility): > 5000 µg/mL
Water Solubility ([2]; 37° C., 24 h): 3.1 µg/mL
XRPD result at 40° C./75% RH (open) [3]: Unchanged
XRPD result at 60° C. (closed) [3]: Unchanged
SMILES: N#Cc1cnc(NC(=O)N2CCCc3cc(CN4CCN5CCC[C@H]5C4=O)c(C=O)nc32)cc1NC1CC1 [Crystalline form I]

AUC(0-t) [6, 16]: 2550 ng·h/mL
clearance [6, 16]: 13.4 mL/min/kg
half-life [6, 16]: 1.23 h
bioavailability ([6]; male, SD, plasma, oral, intragastric 5 mg/kg vs intravenous 2.0 mg/kg, read-out: absolute bioavailability): 35.3%
AUC(0-t) [6, 17]: 2250 ng·h/mL
Cmax [6, 17]: 597 ng/mL
half-life [6, 17]: 1.24 h
Tmax ([6]; male, SD, plasma, po, intragastrically administered, 5 mg/kg, read-out: time at which the plasma concentration reached the peak value (Tmax)): 2.5 h
volume distribution ([6]; intravenously injected, 2.0 mg/kg): 0.973 L/kg
SMILES: N#Cc1cnc(NC(=O)N2CCCc3cc(CN4CCN5CCC[C@@H]5C4=O)c(C=O)nc32)cc1NC1CC1 [compound of formula C]
